For assay [1], the system named is alcohol preferring rats. The assay can be described thus: Alcohol Preferring Rats In Vivo Model, acute oral dosing, two-bottle choice. Further details: species or system rat. Conditions: for Alcohol Intake / Alcohol Preference: mean ± S.E.M., N = 14. On the procedure:
Adult male selectively-bred alcohol preferring rats (N=14) were used. This particular strain of alcohol drinking rat has been characterized and have been widely used to study the effects of different compounds on voluntary alcohol intake (Farren et al., 2000; Rezvani et al, 1990, 1991, 1992a, 1992b, 1999, 2000, 2003; Murphy et al, 1988; Overstreet et al., 2003, 1999; Li and McBride, 1990). Rats were housed individually in approved cages under a constant room temperature of 22+1° C. and 12:12 light-dark cycle (8:00-20:00, dark). Animal were fed Agway Prolab Rat/Mouse/Hamster 3000 formula and water ad libitum.
Alcohol intake was determined using the standard two-bottle choice method utilized in our and other laboratories for many years (Murphy et al. 1988; Rezvani et al. 1990, 1991, 1993, 1995, 1997, Rezvani and Grady, 1994, Rezvani et al., 1993). Animals were first given free access to water in a graduated Richter tube for 2 days. Next, they were given access to only a solution of 10% (v/v) ethanol for 3 consecutive days. During this period animals became accustomed to drinking from Richter tubes and to the taste and pharmacological effects of alcohol. Thereafter, they were given free access to both water and a solution of 10% alcohol for at least 4 consecutive weeks and throughout of the period of study. Rats had free access to food. Water and alcohol intake were recorded at 6 and 24 hour after the treatment, whereas food intake was measured at 24 hour. Animals' body weights were measured the day of the treatment and the day after.
After establishment of stable baseline for alcohol, food, and water intake, rats were administered (gavage) at 9:30 a.m. either with the vehicle or the compound of formula (I) at one of four doses (1,3,10 and 30 mg/kg) using a cross-over design with random assignment. To be able to compare the efficacy of the compound of formula (I) on alcohol intake naltrexone was included as a positive control. The same rats were given an oral dose of 20 mg/kg naltrexone. All animals will receive all treatments in a random order. The interval between treatments was at least 1 week. Alcohol and water intake were recorded 6 and 24 h after the drug administration and food intake was recorded at 24 hr. The volume of the drug administration was 6 ml/kg.
The results at 6 and 24 hours post-dosing are presented in Tables 3 and 4 below, as means ±SEM. Alcohol intake (g/kg) was calculated by multiplying the volume of alcohol consumed in ml by 10% and 0.7893 (ethanol density)/body weight in kg. Alcohol preference, expressed as a percentage, was calculated as follows (volume of alcohol consumed in ml/total fluid intake in ml)×100 (Rezvani and Grady, 1994; Rezvani et al., 1997). Statistical differences between drug-treated and control groups were determined by using ANOVA with repeated measures. Each treatment was compared with the corresponding vehicle value.

For assay [2], the system named is alcohol preferring rats. Briefly: Alcohol Preferring Rats, Study B: Post-Deprivation Effect. Format: in vivo, rat. The settings on record: for % EtOH / Alcohol: 45 min before re-exposure to alcohol after 72 hours deprivation. On the procedure: Adult male selectively-bred alcohol preferring rats were used in this study. The selectively bred alcohol preferring rats are widely used to study the suppressant effects of compounds on voluntary alcohol intake (Faren et al. 2000; Rezvani et al, 1990, 1991, 1992a, 1992b, 1999, 2000, 2002; 2003; Murphy et al, 1988; Overstreet et al., 1992, 1999; Li and McBride, 1995).
The rats were housed individually under a constant room temperature of 22±1° C. and 12:12 light-dark cycle (7:00-19:00, dark). Animals were fed Agway Prolab Rat/Mouse/Hamster 3000 formula and water ad libitum.
Alcohol intake was determined using a standard two-bottle choice method (Murphy et al. 1988; McBride et al. 1990; Rezvani et al. 1990, 1991, 1993, 1995, 1997, Rezvani et al., 2007a,b; Rezvani and Grady, 1994). Animals were first given free access to water in a graduated Richter tube for 1 day. Next, they were given access to only a solution of 10% (v/v) ethanol for 3 consecutive days. During this period the animals became accustomed to drinking from Richter tubes and to the taste and pharmacological effects of alcohol. Thereafter, the animals were given free access to both water and a solution of 10% alcohol for 4 consecutive weeks and throughout of the study. The animals continued to have free access to food. Water and alcohol intake were recorded at 6 and 24 hour.
Following Study A, the rats were maintained on alcohol for 15 days without drug. On day 16 post-gavage, rats were put on food and water only for 72 hours. On the next day, 45 min before re-exposure to alcohol, the rats were treated with vehicle (0.5% methylcellulose), naltrexone (at 20 mg/kg) or compound of formula (I-A) (at 30-mg/kg). Alcohol intake was then measured at 1, 3, 6 and 24 hr after exposure.
The results are presented as a means. Alcohol intake (g/kg) was calculated by multiplying the volume of alcohol consumed in ml by 10% and 0.7893 (ethanol density)/body weight in kg. Alcohol preference, expressed as percentage was calculated as (volume of alcohol consumed in ml/total fluid intake in ml)×100 (Rezvani and Grady, 1994; Rezvani et al., 2007a). Statistical differences between drug-treated and control groups was determined by using ANOVA and Tukey Student's t test for multiple comparison.
The results from Study B provide a measure of the effectiveness of the test compound to suppress post-deprivation-induced craving for alcohol.

Where [3] appears, read: 1 mg/kg p.o., 6 hrs post-dosing.
Where [4] appears, read: 1 mg/kg p.o., 24 hrs post-dosing.
Where [5] appears, read: 3 mg/kg p.o., 6 hrs post-dosing.
Setting [6] is: 3 mg/kg p.o., 24 hrs post-dosing.
The mark [7] stands for this setting: 10 mg/kg p.o., 6 hrs post-dosing.
Setting [8] is: 10 mg/kg p.o., 24 hrs post-dosing.
The mark [9] stands for this setting: 30 mg/kg p.o, 6 hrs post-dosing.
Where [10] appears, read: 30 mg/kg p.o, 24 hrs post-dosing.
The mark [11] stands for this setting: 20 mg/kg p.o., 6 hrs post-dosing.
Setting [12] is: 20 mg/kg p.o., 24 hrs post-dosing.

Consider `Cc1cccc2cccc(CN3CCC4(CC3)C(=O)N(C[C@H](O)CN)CN4c3ccc(F)cc3)c12` [Cmpd (I-A), 3-(3-amino-2-(R)-hydroxy-propyl)-1-(4-fluoro-phenyl)-8-(8-methyl-naphthalen-1-ylmethyl)-1,3,8-triazaspiro[4.5]decan-4-one], for which the “Alcohol Intake” value is reported as 1.85 ± 0.234 g/kg in the assay on alcohol preferring rats [1] (setting [3]); 4.95 ± 0.389 g/kg with alcohol preferring rats [1] (setting [4]); 1.53 ± 0.184 g/kg with alcohol preferring rats [1] (setting [5]); 4.43 ± 0.339 g/kg in the assay with alcohol preferring rats [1] (setting [6]); 1.59 ± 0.238 g/kg with alcohol preferring rats [1] (setting [7]); 4.73 ± 0.351 g/kg in the assay on alcohol preferring rats [1] (setting [8]). The “Alcohol Intake” value in the assay with alcohol preferring rats [1] (setting [9]) turned out to be 0.905 ± 0.198 g/kg; in the assay on alcohol preferring rats [1] (setting [10]), 3.16 ± 0.582 g/kg. Further, the “Alcohol Preference” value with alcohol preferring rats [1] (setting [3]) was 75.1 ± 5.60%; in the assay with alcohol preferring rats [1] (setting [4]), 80.4 ± 4.68%; in the assay on alcohol preferring rats [1] (setting [5]), 61.6 ± 6.19%; in the assay with alcohol preferring rats [1] (setting [6]) it was 68.9 ± 4.87%; in the assay with alcohol preferring rats [1] (setting [7]), 62.4 ± 6.33%; with alcohol preferring rats [1] (setting [8]), 71.7 ± 3.56%. Further, the “Alcohol Preference” value with alcohol preferring rats [1] (setting [9]) worked out at 46.7 ± 8.20%; with alcohol preferring rats [1] (setting [10]), 50.1 ± 7.77%. Also, the “Alcohol preference compared with vehicle” value in the assay on alcohol preferring rats [1] (30 mg/kg, both 6 hours and 24 hours post-dosing) is recorded as “reduced alcohol preference”; in the assay on alcohol preferring rats [1] (other doses (1, 3, 10 mg/kg), 6 hours and 24 hours post-dosing) it was “did not significantly affect alcohol preference”. Also, the “Alcohol intake compared with vehicle” value in the assay on alcohol preferring rats [1] (acute oral administration of 3, 10 and 30 mg/kg, at 6 hr) is recorded as “significantly reduced alcohol intake”; in the assay on alcohol preferring rats [1] (at 24 hr, only "the mg/kg dose" (dose figure missing)), “statistically significantly (p<0.0002) in reducing alcohol intake”. For the same compound, the “% EtOH” value in the assay with alcohol preferring rats [2] (30 mg/kg, 1 Hour Post Dosing) is reported as 84%; in the assay on alcohol preferring rats [2] (30 mg/kg, 3 Hours Post Dosing), 75%; in the assay with alcohol preferring rats [2] (30 mg/kg, 6 Hours Post Dosing), 72%; in the assay with alcohol preferring rats [2] (30 mg/kg, 24 Hours Post Dosing), 73%. Also, the Alcohol in the assay with alcohol preferring rats [2] (30 mg/kg, 1 Hour Post Dosing) stood at 0.39 g/kg; in the assay with alcohol preferring rats [2] (30 mg/kg, 3 Hours Post Dosing), 0.72 g/kg; in the assay on alcohol preferring rats [2] (30 mg/kg, 6 Hours Post Dosing), 1.48 g/kg; in the assay with alcohol preferring rats [2] (30 mg/kg, 24 Hours Post Dosing) it was 3.72 g/kg. Besides, in the assay with alcohol preferring rats [2] (30 mg/kg, at 1, 3, 6 and 24 hours post dosing), the “Alcohol intake and preference, post-deprivation” value was “showed a decrease in alcohol intake and preference”.
In the case of `O=C1CC[C@@]2(O)[C@H]3Cc4ccc(O)c5c4[C@@]2(CCN3CC2CC2)[C@H]1O5` [Naltrexone, naltrexone, reference compound], the entries for the “Alcohol Intake” value in the assay on alcohol preferring rats [1] (setting [11]) and in the assay on alcohol preferring rats [1] (setting [12]) were 1.19 ± 0.25 g/kg and 3.64 ± 0.545 g/kg, respectively. The “Alcohol Preference” value in the assay with alcohol preferring rats [1] (setting [11]) is on record as 46.8 ± 7.91%; in the assay with alcohol preferring rats [1] (setting [12]), 58.8 ± 6.77%. Further, the “Alcohol intake compared with vehicle” value in the assay with alcohol preferring rats [1] (naltrexone 20 mg/kg oral, 24 hr post-dosing) was “remained statistically significantly (p<0.0028) in reducing alcohol intake”. For the same compound, the “Alcohol preference compared with vehicle” value with alcohol preferring rats [1] (naltrexone 20 mg/kg oral, both 6 hours and 24 hours post-dosing) is “reduced alcohol preference”. The “% EtOH” value came out at 95% in the assay with alcohol preferring rats [2] (20 mg/kg, 1 Hour Post Dosing); 94% with alcohol preferring rats [2] (20 mg/kg, 3 Hours Post Dosing); 87% in the assay on alcohol preferring rats [2] (20 mg/kg, 6 Hours Post Dosing); 87% with alcohol preferring rats [2] (20 mg/kg, 24 Hours Post Dosing). For the same compound, the Alcohol is given as 0.48 g/kg in the assay with alcohol preferring rats [2] (20 mg/kg, 1 Hour Post Dosing); 1.15 g/kg with alcohol preferring rats [2] (20 mg/kg, 3 Hours Post Dosing); 2.35 g/kg in the assay with alcohol preferring rats [2] (20 mg/kg, 6 Hours Post Dosing); 6.47 g/kg in the assay on alcohol preferring rats [2] (20 mg/kg, 24 Hours Post Dosing).

The values above are taken from US20080200492A1, “METHODS FOR THE TREATMENT OF ALCOHOL ABUSE, ADDICTION AND DEPENDENCY” (priority 2006, published 2008).
